The values that follow come from ChEMBL document CHEMBL3861965, “Stereochemical Assignment and Biological Evaluation of BE-14106 Unveils the Importance of One Acetate Unit for the Antifungal Activity of Polyene Macrolactams” (J Nat Prod, 2016).

What all share (format): functional
The subject of assay [1] is Schizosaccharomyces pombe. The assay can be described thus: Antifungal activity against wild type fission yeast JY1 assessed as accumulation of cell wall material at 0.25 uM after 2 hrs by cfw-dye based fluorescence microscopic analysis.
Assay [2] in a line: Antifungal activity against fission yeast harboring deltasts1/erg4 mutant after 24 hrs by turbidity assay. To be noted: Schizosaccharomyces pombe.
Assay [3] in a line: Antifungal activity against fission yeast harboring deltaerg2 mutant after 24 hrs by turbidity assay. To be noted: Schizosaccharomyces pombe.
Assay [4] is described as follows: Antifungal activity against fission yeast harboring deltaerg5 mutant after 24 hrs by turbidity assay. The following applies: Schizosaccharomyces pombe.
Assay [5] in a line: Antifungal activity against wild type fission yeast JY1 after 24 hrs by turbidity assay. To be noted: Schizosaccharomyces pombe.
The nature of assay [6]: Antifungal activity against fission yeast harboring deltaerg31/deltaerg32 mutant after 24 hrs by turbidity assay. The following applies: Schizosaccharomyces pombe.
Assay [7] can be described thus: Antifungal activity against wild type fission yeast JY1 after 24 hrs by XTT assay. The following applies: Schizosaccharomyces pombe.

Structures are written as SMILES. ≈ marks a conversion by molar mass, not a printed value. Calls of active or inactive are those of the source.

As usually defined, the MIC is the smallest concentration in the dilution series that meets the test's criterion for growth inhibition. Low values mean inhibition by little substance, high ones a need for much substance. With `CCC/C=C/C=C/C[C@@H]1C/C=C/C=C(C)/C=C/C=C\[C@@H](O)[C@@H](O)/C=C(C)/C=C/C=C/C(=O)N1`, in assay [1], the outcome was Active. Besides, the MIC in assay [2], in assay [3], in assay [4], in assay [5] and in assay [6] was 0.13 to 0.28 µM (≈ 0.0585 to 0.126 µg/mL) each time.
For `C[C@@H]1[C@H](O)[C@@H](C)/C=C/C=C/C=C/C=C/C=C/C=C/C=C/[C@H](O[C@@H]2O[C@H](C)[C@@H](O)[C@H](N)[C@@H]2O)C[C@@H]2O[C@](O)(C[C@@H](O)C[C@@H](O)[C@H](O)CC[C@@H](O)C[C@@H](O)CC(=O)O[C@H]1C)C[C@H](O)[C@H]2C(=O)O`, the MIC in assay [7] amounted to 0.27 µM (≈ 0.25 µg/mL).
